Bounds are passed on as bounds.

Common to all, as to assay type: in vivo
Data set [1] can be described thus: inhalation anesthesia test in mice (10 min exposure in a rotating drum; pinch, corneal and righting reflexes). As to conditions: mouse, in vivo, inhaled or intranasal; calculated from LC50 and AC50 in mice; read-out: AI (anesthetic index, LC50/AC50). Here is the method:
(§1) Mice were exposed to the anesthetic for a period of 10 minutes in a rotating drum. Observations were then made of the pinch reflex, the corneal reflex and the return of the righting reflex. At least four graded doses were employed to determine the minimum concentration required to anesthetize 50% of the mice used (AC50) and the minimum concentration required to kill 50% of the mice (LC50). The anesthetic index (AI) was then calculated from these minimum concentrations.

The subject of data set [2] is mice. The description is as above. As to conditions: for potency as general anesthetics: administered in inhalation-anesthetic-susceptible organisms, in words; for AC50 (minimum concentration required to anesthetize 50% of the mice): inhalation, 10 minutes, rotating drum, at least four graded doses. As to the method:
as §1

In data set [3] the test system is mice. In words: lethality in mice on inhalation (LC50). As to conditions: 10 minutes, rotating drum, when two figures are given, the actual value lies between them. As to the method:
as §1

Turning to `CC1CC1(F)Br` (centres unmarked) [Example 4, 1-bromo-1-fluoro-2-methylcyclopropane], the selectivity ratio at 10 min in data set [1] is more than 2. In addition, in the data set on mice [2], the “potency as general anesthetics” value was “high potency” and the “AC50 (minimum concentration required to anesthetize 50% of the mice)” value was less than 2 % volume. In the data set on mice [3], the “LC50 (minimum concentration required to kill 50% of the mice)” value is 4-6 % volume.

On to `CC1(F)CC1(F)Br` (centres unmarked) [Example 3, 1-bromo-1,2-difluoro-2-methylcyclopropane], for which the selectivity ratio at 10 min in data set [1] was 10. Also, in the data set with mice [2], the “potency as general anesthetics” value was “high potency” and the “AC50 (minimum concentration required to anesthetize 50% of the mice)” value is on record as 0.5 % volume. In the data set on mice [3], the “LC50 (minimum concentration required to kill 50% of the mice)” value worked out at 5 % volume.

These data come from patent US3931344A, “Bromofluorocyclopropanes” (priority 1974, dated 1976).
